# Experiments:
# Assay in all cases: SILAC LC-MS ABPP
# Assay type in all cases: cell-based
# Details in all cases: 25 μM 2 h, live DM93 cells
# [1] = biological target: T1, P68371 (Homo sapiens, UniProt P68371)
# T1 construct: performing SuTEx compound screening directly in cells; endogenous in cells; host or cells: DM93 cells (SILAC)
# In short: (§1)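 Competitive activity-based profiling in isotopically labelled DM93 melanoma cells. Heavy cells received 25 μM sulfonyl-triazole ligand and light cells vehicle, each for 2 h at 37 °C, before 2 h with 100 μM HHS-475. Labelled soluble proteins were tagged via CuAAC, combined, digested and enriched before LC-MS/MS.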
# [2] = biological target: T2, O94925 (Homo sapiens, UniProt O94925)
# T2 construct: endogenous in cells; host or cells: DM93 cells (SILAC)
# In short: as §1
# [3] = biological target: T3, P08238 (Homo sapiens, UniProt P08238)
# T3 construct: endogenous in cells; host or cells: DM93 cells (SILAC)
# In short: as §1
# [4] = biological target: T4, Q9NUJ1 (Homo sapiens, UniProt Q9NUJ1)
# T4 construct: endogenous in cells; host or cells: DM93 cells (SILAC), treated live; soluble proteome analysed
# In short: as §1
# [5] = biological target: T5, Q9H3P7 (Homo sapiens, UniProt Q9H3P7)
# T5 construct: endogenous in cells; host or cells: DM93 cells (SILAC), treated live; soluble proteome analysed
# In short: as §1
# [6] = biological target: T6, P49585 (Homo sapiens, UniProt P49585)
# T6 construct: endogenous in cells; host or cells: DM93 cells (SILAC)
# In short: as §1
# [7] = biological target: T7, O75351 (Homo sapiens, UniProt O75351)
# T7 construct: endogenous in cells; host or cells: DM93
# In short: as §1
# [8] = biological target: T8, P62979 (Homo sapiens, UniProt P62979)
# T8 construct: performing SuTEx compound screening directly in cells; endogenous in cells; host or cells: DM93 cells (SILAC)
# In short: as §1
# [9] = biological target: T9, P23921 (Homo sapiens, UniProt P23921)
# T9 construct: Probe-modified proteins from the soluble fraction were conjugated to a desthiobiotin-azide tag; endogenous in cells; host or cells: DM93 (SILAC)
# In short: as §1
# [10] = biological target: T10, O00571 (Homo sapiens, UniProt O00571)
# T10 construct: endogenous in cells; host or cells: DM93
# In short: as §1
# [11] = biological target: T11, Q15154 (Homo sapiens, UniProt Q15154)
# T11 construct: performing SuTEx compound screening directly in cells; endogenous in cells; host or cells: DM93 cells (SILAC), soluble fraction
# In short: as §1
# [12] = biological target: T12, Q96BR5 (Homo sapiens, UniProt Q96BR5)
# T12 construct: endogenous in cells; host or cells: DM93 cells (SILAC), treated live; soluble proteome analysed
# In short: as §1
# [13] = biological target: T13, Q6NZY4 (Homo sapiens, UniProt Q6NZY4)
# T13 construct: endogenous in cells; host or cells: DM93 cells (SILAC), live-cell treatment
# In short: as §1
# [14] = biological target: T14, P55795 (Homo sapiens, UniProt P55795)
# T14 construct: Probe-modified proteins from the soluble fraction were conjugated to a desthiobiotin-azide tag; endogenous in cells; host or cells: DM93 cells (SILAC)
# In short: as §1
# [15] = biological target: T15, Q8N6H7 (Homo sapiens, UniProt Q8N6H7)
# T15 construct: endogenous in cells; host or cells: DM93 cells (SILAC), live-cell treatment
# In short: as §1
# T2 sequence (O94925 55-669): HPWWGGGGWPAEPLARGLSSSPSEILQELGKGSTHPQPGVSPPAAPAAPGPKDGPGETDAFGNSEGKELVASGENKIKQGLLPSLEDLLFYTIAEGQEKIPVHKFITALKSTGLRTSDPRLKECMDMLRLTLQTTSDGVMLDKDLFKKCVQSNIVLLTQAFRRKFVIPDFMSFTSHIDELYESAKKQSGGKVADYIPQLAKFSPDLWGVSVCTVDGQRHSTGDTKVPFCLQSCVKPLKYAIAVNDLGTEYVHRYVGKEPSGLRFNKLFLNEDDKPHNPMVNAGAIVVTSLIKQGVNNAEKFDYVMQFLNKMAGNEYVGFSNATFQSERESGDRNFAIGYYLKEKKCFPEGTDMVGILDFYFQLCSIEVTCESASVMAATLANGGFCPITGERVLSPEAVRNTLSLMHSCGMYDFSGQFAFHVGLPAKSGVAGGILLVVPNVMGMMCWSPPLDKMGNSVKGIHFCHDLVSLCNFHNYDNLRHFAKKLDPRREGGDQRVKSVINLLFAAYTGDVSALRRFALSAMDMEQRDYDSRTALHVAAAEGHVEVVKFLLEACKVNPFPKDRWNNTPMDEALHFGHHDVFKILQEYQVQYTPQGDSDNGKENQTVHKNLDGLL
# T14 sequence (P55795 whole entry): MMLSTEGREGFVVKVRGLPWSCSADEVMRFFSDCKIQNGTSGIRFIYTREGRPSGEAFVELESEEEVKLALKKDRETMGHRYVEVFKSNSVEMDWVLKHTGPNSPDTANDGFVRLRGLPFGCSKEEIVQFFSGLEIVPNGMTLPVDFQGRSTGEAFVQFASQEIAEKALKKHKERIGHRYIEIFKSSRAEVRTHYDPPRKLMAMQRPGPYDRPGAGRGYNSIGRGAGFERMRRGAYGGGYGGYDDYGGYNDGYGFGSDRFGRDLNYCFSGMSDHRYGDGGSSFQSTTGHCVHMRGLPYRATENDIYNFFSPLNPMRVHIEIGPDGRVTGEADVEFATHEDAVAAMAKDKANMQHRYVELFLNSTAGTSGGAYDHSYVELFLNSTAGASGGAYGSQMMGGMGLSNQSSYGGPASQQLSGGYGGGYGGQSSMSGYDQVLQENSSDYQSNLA
# T7 sequence (O75351 whole entry): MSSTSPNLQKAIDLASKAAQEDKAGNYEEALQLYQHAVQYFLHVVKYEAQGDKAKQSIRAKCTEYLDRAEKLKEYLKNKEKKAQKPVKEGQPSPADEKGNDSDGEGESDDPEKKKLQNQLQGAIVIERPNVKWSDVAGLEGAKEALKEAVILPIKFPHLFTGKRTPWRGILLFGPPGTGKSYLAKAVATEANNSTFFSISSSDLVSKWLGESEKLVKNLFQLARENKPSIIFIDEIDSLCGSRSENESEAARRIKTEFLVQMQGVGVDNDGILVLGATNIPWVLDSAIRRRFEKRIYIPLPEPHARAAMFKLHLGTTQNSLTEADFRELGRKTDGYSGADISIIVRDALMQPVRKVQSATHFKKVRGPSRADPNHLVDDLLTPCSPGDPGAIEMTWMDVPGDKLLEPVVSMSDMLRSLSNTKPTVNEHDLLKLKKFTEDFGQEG
# T11 sequence (Q15154 whole entry): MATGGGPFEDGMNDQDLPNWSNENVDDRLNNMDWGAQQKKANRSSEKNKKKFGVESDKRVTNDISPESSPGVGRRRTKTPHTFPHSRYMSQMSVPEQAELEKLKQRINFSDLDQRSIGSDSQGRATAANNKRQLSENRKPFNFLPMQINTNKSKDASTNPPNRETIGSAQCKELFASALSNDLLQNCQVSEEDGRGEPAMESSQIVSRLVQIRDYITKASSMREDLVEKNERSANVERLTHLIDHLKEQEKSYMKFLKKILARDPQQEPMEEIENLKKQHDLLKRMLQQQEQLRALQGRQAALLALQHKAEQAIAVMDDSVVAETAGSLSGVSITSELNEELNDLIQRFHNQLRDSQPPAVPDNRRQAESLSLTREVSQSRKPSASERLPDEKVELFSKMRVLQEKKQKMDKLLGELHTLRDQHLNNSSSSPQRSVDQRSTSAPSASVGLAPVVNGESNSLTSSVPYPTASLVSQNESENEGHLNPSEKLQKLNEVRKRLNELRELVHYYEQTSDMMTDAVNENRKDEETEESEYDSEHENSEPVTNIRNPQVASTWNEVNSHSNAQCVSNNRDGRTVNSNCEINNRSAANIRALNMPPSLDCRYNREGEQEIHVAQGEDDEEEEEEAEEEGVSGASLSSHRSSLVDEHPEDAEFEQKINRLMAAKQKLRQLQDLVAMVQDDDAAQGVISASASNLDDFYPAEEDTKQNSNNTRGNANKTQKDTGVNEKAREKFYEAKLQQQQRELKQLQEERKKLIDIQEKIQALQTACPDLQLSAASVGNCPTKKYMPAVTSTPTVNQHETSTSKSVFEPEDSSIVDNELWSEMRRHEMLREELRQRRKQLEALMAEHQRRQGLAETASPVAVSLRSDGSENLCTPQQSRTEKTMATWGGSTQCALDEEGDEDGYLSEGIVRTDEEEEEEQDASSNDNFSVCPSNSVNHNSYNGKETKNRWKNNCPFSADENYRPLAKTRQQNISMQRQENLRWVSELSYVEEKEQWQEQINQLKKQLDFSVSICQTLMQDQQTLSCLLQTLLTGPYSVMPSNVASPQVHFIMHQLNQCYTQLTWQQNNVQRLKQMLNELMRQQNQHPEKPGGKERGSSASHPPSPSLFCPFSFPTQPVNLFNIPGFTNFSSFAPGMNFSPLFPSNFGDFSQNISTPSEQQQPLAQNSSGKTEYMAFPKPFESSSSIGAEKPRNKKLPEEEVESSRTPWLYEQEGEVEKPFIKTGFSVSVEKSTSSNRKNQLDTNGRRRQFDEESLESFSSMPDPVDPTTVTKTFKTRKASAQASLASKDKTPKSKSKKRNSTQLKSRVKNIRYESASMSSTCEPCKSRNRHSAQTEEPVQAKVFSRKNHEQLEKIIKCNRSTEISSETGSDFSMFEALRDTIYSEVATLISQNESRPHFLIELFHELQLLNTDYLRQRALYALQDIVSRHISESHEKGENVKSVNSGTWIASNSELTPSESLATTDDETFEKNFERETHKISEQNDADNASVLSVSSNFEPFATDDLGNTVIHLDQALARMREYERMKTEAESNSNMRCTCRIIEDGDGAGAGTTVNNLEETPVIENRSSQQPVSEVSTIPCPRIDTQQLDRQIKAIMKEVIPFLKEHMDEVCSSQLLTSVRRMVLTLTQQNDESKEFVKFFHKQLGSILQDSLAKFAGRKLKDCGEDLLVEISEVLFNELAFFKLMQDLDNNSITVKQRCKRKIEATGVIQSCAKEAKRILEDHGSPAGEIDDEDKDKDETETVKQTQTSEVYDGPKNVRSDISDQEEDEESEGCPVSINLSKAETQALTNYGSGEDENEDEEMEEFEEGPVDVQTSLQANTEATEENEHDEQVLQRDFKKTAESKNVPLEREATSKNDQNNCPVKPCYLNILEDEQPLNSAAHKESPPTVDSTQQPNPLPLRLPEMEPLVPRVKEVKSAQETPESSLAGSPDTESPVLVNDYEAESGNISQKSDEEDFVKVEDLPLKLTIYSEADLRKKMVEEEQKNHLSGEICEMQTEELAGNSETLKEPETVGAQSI
# T3 sequence (P08238 whole entry): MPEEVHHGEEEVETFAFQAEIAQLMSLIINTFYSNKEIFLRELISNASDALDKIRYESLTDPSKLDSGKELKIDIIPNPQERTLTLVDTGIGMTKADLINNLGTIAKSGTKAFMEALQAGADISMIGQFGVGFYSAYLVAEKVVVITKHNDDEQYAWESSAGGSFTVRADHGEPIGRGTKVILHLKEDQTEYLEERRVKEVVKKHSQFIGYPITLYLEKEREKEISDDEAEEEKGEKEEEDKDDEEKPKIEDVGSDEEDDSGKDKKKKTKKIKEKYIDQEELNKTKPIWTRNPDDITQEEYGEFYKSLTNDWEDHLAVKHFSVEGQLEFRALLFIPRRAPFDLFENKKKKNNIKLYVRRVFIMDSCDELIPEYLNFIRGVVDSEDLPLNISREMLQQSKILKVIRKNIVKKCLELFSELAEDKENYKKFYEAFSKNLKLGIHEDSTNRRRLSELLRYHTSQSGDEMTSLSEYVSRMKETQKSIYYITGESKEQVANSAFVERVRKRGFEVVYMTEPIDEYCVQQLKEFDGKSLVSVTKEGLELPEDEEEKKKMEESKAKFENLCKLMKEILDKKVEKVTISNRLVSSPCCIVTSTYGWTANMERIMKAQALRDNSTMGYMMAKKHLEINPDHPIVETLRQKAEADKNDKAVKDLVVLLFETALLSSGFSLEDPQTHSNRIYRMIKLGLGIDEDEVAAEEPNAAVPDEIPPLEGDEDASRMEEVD
# T6 sequence (P49585 whole entry): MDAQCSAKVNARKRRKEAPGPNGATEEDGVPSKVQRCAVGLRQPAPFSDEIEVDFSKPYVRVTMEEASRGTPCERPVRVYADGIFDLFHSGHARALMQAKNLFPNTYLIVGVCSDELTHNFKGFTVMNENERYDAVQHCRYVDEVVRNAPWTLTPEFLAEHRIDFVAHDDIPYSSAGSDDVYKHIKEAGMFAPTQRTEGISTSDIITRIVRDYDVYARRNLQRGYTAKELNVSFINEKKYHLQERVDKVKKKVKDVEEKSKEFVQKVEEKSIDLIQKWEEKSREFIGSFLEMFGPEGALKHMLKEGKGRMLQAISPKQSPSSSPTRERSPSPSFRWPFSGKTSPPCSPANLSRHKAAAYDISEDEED
# T4 sequence (Q9NUJ1 53-306): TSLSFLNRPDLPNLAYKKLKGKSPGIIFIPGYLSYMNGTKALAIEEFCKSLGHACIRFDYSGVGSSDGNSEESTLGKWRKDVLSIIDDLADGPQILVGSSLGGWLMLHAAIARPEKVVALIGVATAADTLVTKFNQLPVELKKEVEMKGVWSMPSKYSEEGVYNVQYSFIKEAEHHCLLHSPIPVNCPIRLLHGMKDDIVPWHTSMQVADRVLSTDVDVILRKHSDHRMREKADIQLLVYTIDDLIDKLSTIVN
structure (smiles),measurement,setting,value
"O=C(NC1CC1)c1ccc(S(=O)(=O)n2cncn2)cc1 [HHS-0101, 4-((1H-1,2,4-triazol-1-yl)sulfonyl)-N-cyclopropylbenzamide]",liganded tyrosine site 50,[1],HHS0101.Y (tyrosine sites that showed >80% reductions (SR >5) in probe labeling in cells treated with compounds (liganded sites))
same,liganded tyrosine site 145,[2],HHS0101.Y (tyrosine sites that showed >80% reductions (SR >5) in probe labeling in cells treated with compounds (liganded sites))
same,liganded tyrosine site 304,[2],HHS0101.Y (tyrosine sites that showed >80% reductions (SR >5) in probe labeling in cells treated with compounds (liganded sites))
same,liganded tyrosine site 430,[3],HHS0101.Y|HHS0201.Y|HHS0301.Y|HHS0401.Y (tyrosine sites that showed >80% reductions (SR >5) in probe labeling in cells treated with compounds (liganded sites))
"O=C(NCC1CC1)c1ccc(S(=O)(=O)n2cncn2)cc1 [HHS-0201, 4-((1H-1,2,4-triazol-1-yl)sulfonyl)-N-(cyclopropylmethyl)benzamide]",liganded tyrosine site 215,[4],HHS0201.Y|HHS0701.Y (tyrosine sites that showed >80% reductions (SR >5) in probe labeling in cells treated with compounds (liganded sites))
same,liganded tyrosine site 293,[5],HHS0201.Y|HHS0301.Y (tyrosine sites that showed >80% reductions (SR >5) in probe labeling in cells treated with compounds (liganded sites))
"O=C(NC1CCCCC1)c1ccc(S(=O)(=O)n2cncn2)cc1 [HHS-0301, 4-((1H-1,2,4-triazol-1-yl)sulfonyl)-N-cyclohexylbenzamide]",liganded tyrosine site 173,[6],HHS0301.Y (tyrosine sites that showed >80% reductions (SR >5) in probe labeling in cells treated with compounds (liganded sites))
"O=C(NCc1ccccc1)c1ccc(S(=O)(=O)n2cncn2)cc1 [HHS-0401, 4-((1H-1,2,4-triazol-1-yl)sulfonyl)-N-benzylbenzamide]",liganded tyrosine site 47,[7],HHS0401.Y (tyrosine sites that showed >80% reductions (SR >5) in probe labeling in cells treated with compounds (liganded sites))
same,liganded tyrosine site 148,[8],HHS0401.Y (tyrosine sites that showed >80% reductions (SR >5) in probe labeling in cells treated with compounds (liganded sites))
same,liganded tyrosine site 485,[9],HHS0401.Y (tyrosine sites that showed >80% reductions (SR >5) in probe labeling in cells treated with compounds (liganded sites))
same,liganded tyrosine site 266,[10],HHS0401.Y (tyrosine sites that showed >80% reductions (SR >5) in probe labeling in cells treated with compounds (liganded sites))
same,liganded tyrosine site 1424,[11],HHS0401.Y|HHS0701.Y (tyrosine sites that showed >80% reductions (SR >5) in probe labeling in cells treated with compounds (liganded sites))
same,liganded tyrosine site 72,[12],HHS0401.Y (tyrosine sites that showed >80% reductions (SR >5) in probe labeling in cells treated with compounds (liganded sites))
"O=C(c1ccc(S(=O)(=O)n2cncn2)cc1)N1CCC(c2ccccc2)CC1 [HHS-0701, (4-((1H-1,2,4-triazol-1-yl)sulfonyl)phenyl)(4-phenylpiperidin-1-yl)methanone]",liganded tyrosine site 258,[13],HHS0701.Y (tyrosine sites that showed >80% reductions (SR >5) in probe labeling in cells treated with compounds (liganded sites))
same,liganded tyrosine site 240,[14],HHS0701.Y (tyrosine sites that showed >80% reductions (SR >5) in probe labeling in cells treated with compounds (liganded sites))
same,liganded tyrosine site 243,[14],HHS0701.Y (tyrosine sites that showed >80% reductions (SR >5) in probe labeling in cells treated with compounds (liganded sites))
same,liganded tyrosine site 445,[15],HHS0701.Y (tyrosine sites that showed >80% reductions (SR >5) in probe labeling in cells treated with compounds (liganded sites))
